In patent US20070020747A1, “Composition for eliminating ethidium bromide and use thereof” (priority 2005, published 2007):

Columns and labels:
[1] = UV examination of EtBr elimination by oxidants in glass bottles (Example 1); conditions: for EtBr cleaning effect: oxidant 500 mM, not illuminated with UV; for EtBr cleaning effect / EtBr-eliminating effect (fluorescence): 60 min; for elimination of EtBr in solution (fluorescence): oxidant 20 or 500 mM, illuminated with UV for 60 minutes, groups 1-3
Method: 5M lithium nitrate (LiNO3), 5M sodium nitrite (NaNO2), and 5 µg/ml EtBr solutions were prepared.
7 glass bottles (about 7 ml of capacity) were prepared with solutions as described in Table 1. The bottle 1 was added 4 μl LiNO3 and 996 μl EtBr, wherein the final concentration of LiNO3 was 20 mM. The bottle 2 was added 100 μl LiNO3 and 900 μl EtBr, wherein the final concentration of LiNO3 was 500 mM. The bottle 3 was added 4 μl NaNO2 and 996 μl EtBr, wherein the final concentration of NaNO2 was 20 mM. The bottle 4 was added 100 μl NaNO2 and 900 μl EtBr, wherein the final concentration of NaNO2 was 500 mM. The bottle 5 was added 1 ml EtBr only. The bottle 6 was added 100 μl LiNO3 and 900 μl EtBr. The bottle 7 was added 100 μl NaNO2 and 900 μl EtBr.
The bottles 1-5 were illuminated with ultraviolet, which was 8 W and the wavelength was 180-280 nm. The samples were collected in the time point 0 and 60 minutes. The bottles 6 and 7 were not illuminated with ultraviolet and the samples were collected in the time point 60 minutes.
Except the wavelength of UV was changed to 280˜320 nm, all conditions were identical to group 1.
Except the wavelength of UV was changed to 320˜380 nm, all conditions were identical to group 1.
Each sample was collected 25 μl from the experimental bottle in the selected time point. There were 12 samples for each group, total 36 samples. These samples were dropped on the center of a filter paper (diameter 2.5 cm) and illuminated with UV to observe the elimination of EtBr.

[2] = UV examination of EtBr elimination by oxidants in beakers under a four-tube UV lid (Example 2); conditions: oxidant 50 mM
Method: The appearance of the light source was a rectangular lid and the size was 35 cm×21 cm×15 cm. Four parallel 8 W UV tubes were implanted on the top of the lid.
5 beakers were prepared. Beaker 1 and 2 were added 100 μl LiNO3 and 9.9 ml EtBr, so that the final concentration of LiNO3 was 50 mM. Beaker 3 and 4 were added 100 μl NaNO2 and 9.9 ml EtBr, so that the final concentration of NaNO2 was 50 mM. Beaker 5 was added 10 ml EtBr only. The beakers 1, 3 and 5 were illuminated with UV, and the samples were collected in the time points 0, 15, 30, 60 and 120 minutes. The beakers 2 and 4 were not illuminated with UV, and the samples were collected in the time point 120 minutes.
Each sample was collected 25 μl from the experimental beaker in the selected time point. There were 17 samples totally. These samples were dropped on the center of a filter paper (diameter 2.5 cm) and illuminated with UV to observe the elimination of EtBr.

[3] = oxidant plus UV with wavelength 180~280 nm, 8 W
[4] = oxidant plus UV with wavelength 320~380 nm
[5] = oxidant plus UV, second wavelength printed as 180~280 nm (group 2: 280~320 nm)
[6] = after 60 minutes of UV illumination
[7] = after illuminating with UV for 15 minutes

In the case of O=NO [sodium nitrite], the EtBr cleaning effect [1] is reported as “no or insignificant EtBr cleaning effect”, the “elimination of EtBr in solution (fluorescence)” value [1] is reported as “completely destroyed” and the “EtBr-eliminating effect (fluorescence)” value [1, 3] is reported as “strongest effect”. For the same molecule, the “EtBr-eliminating effect (fluorescence)” value [1, 4] was “less effective”, the “EtBr-eliminating effect (fluorescence)” value [1, 5] was “modest effect” and the “destruction of EtBr (fluorescence)” value [2, 6] was “almost all of EtBr in the samples were destroyed”. For the same molecule, the “destruction of EtBr (fluorescence)” value [2, 7] was “most EtBr” and the “destruction of EtBr (fluorescence)” value ([2]; no UV illumination, 120 min) was “not destroyed (or insignificantly destroyed)”.

With O=[N+]([O-])[O-].[Li+] [lithium nitrate] the EtBr cleaning effect [1] was “no or insignificant EtBr cleaning effect”, the “elimination of EtBr in solution (fluorescence)” value [1] was “completely destroyed” and the “EtBr-eliminating effect (fluorescence)” value [1, 3] was “strongest effect”. The “EtBr-eliminating effect (fluorescence)” value [1, 4] was “less effective”, the “EtBr-eliminating effect (fluorescence)” value [1, 5] was “modest effect” and the “destruction of EtBr (fluorescence)” value [2, 6] was “almost all of EtBr in the samples were destroyed”. For the same molecule, the “destruction of EtBr (fluorescence)” value [2, 7] was “most EtBr” and the “destruction of EtBr (fluorescence)” value ([2]; no UV illumination, 120 min) was “not destroyed (or insignificantly destroyed)”.
